The results in this text go back to patent US12721906B2, “Kidney targeted delivery of drugs” (The Brigham and Women's Hospital, Inc., priority 2020, dated 2026).

Assay [1] concerns the target megalin (Mus musculus, UniProt A2ARV4). As to the method:
Female C57BL/6 mice were divided into two groups. The first group (n=4) was treated subcutaneously with 100 mg/kg Cilastatin sodium salt (>98%, Sigma Aldrich, USA) once daily for 4 days, and the second group (n=3) was treated subcutaneously with DPBS for 4 days. On the day of the last treatment, the LC-NP was injected to the mice. 1 day post injection the mice were euthanized and perfused with DPBS, and the kidneys were harvested and imaged.
Without being bound by any particular theory, it was hypothesized that the accumulation of LC-NP in the PTECs of the kidney is dependent on its binding to megalin. To test this hypothesis, the mice were treated with cilastatin or vehicle (DPBS) for 4 days prior to injection of LC-NP. Cilastatin, an inhibitor of renal dehydropeptidase-I (DHP-I), blocks megalin-mediated uptake in the kidney through competitive inhibition^33. 24 hours post-injection of LC-NP, the mice were euthanized and the major organs were harvested for imaging. […] Next, the specific effect of cilastatin on the binding of LC-NPs to PTECs was examined by treating HK-2 human PTECs in vitro directly with LC-NPs and cilastatin.

The target of assay [2] is T1, megalin (Homo sapiens, UniProt P98164).
T1 construct: effective knockdown of megalin expression in HK-2 cells was performed using siRNA directed against the megalin gene; host or cells: HK-2 human kidney proximal tubular epithelial cells
The assay can be described thus: Uptake of LC-NPs by HK-2 cells after cilastatin or megalin siRNA. The class given is cell-based. The following applies: in vitro. The text has this: FIG. 4G-FIG. 4I. […] FIG. 4H: LC-NPs underwent lower uptake by HK-2 cells treated with cilastatin than vehicle (DPBS)-treated cells. […] Values are means±SD. means±SD. **P<0.01, and ***P<0.001 and ns: not significant as calculated by two-tailed Student's t-test.

Chain of megalin (Mus musculus, UniProt A2ARV4) (A2ARV4 26-4660): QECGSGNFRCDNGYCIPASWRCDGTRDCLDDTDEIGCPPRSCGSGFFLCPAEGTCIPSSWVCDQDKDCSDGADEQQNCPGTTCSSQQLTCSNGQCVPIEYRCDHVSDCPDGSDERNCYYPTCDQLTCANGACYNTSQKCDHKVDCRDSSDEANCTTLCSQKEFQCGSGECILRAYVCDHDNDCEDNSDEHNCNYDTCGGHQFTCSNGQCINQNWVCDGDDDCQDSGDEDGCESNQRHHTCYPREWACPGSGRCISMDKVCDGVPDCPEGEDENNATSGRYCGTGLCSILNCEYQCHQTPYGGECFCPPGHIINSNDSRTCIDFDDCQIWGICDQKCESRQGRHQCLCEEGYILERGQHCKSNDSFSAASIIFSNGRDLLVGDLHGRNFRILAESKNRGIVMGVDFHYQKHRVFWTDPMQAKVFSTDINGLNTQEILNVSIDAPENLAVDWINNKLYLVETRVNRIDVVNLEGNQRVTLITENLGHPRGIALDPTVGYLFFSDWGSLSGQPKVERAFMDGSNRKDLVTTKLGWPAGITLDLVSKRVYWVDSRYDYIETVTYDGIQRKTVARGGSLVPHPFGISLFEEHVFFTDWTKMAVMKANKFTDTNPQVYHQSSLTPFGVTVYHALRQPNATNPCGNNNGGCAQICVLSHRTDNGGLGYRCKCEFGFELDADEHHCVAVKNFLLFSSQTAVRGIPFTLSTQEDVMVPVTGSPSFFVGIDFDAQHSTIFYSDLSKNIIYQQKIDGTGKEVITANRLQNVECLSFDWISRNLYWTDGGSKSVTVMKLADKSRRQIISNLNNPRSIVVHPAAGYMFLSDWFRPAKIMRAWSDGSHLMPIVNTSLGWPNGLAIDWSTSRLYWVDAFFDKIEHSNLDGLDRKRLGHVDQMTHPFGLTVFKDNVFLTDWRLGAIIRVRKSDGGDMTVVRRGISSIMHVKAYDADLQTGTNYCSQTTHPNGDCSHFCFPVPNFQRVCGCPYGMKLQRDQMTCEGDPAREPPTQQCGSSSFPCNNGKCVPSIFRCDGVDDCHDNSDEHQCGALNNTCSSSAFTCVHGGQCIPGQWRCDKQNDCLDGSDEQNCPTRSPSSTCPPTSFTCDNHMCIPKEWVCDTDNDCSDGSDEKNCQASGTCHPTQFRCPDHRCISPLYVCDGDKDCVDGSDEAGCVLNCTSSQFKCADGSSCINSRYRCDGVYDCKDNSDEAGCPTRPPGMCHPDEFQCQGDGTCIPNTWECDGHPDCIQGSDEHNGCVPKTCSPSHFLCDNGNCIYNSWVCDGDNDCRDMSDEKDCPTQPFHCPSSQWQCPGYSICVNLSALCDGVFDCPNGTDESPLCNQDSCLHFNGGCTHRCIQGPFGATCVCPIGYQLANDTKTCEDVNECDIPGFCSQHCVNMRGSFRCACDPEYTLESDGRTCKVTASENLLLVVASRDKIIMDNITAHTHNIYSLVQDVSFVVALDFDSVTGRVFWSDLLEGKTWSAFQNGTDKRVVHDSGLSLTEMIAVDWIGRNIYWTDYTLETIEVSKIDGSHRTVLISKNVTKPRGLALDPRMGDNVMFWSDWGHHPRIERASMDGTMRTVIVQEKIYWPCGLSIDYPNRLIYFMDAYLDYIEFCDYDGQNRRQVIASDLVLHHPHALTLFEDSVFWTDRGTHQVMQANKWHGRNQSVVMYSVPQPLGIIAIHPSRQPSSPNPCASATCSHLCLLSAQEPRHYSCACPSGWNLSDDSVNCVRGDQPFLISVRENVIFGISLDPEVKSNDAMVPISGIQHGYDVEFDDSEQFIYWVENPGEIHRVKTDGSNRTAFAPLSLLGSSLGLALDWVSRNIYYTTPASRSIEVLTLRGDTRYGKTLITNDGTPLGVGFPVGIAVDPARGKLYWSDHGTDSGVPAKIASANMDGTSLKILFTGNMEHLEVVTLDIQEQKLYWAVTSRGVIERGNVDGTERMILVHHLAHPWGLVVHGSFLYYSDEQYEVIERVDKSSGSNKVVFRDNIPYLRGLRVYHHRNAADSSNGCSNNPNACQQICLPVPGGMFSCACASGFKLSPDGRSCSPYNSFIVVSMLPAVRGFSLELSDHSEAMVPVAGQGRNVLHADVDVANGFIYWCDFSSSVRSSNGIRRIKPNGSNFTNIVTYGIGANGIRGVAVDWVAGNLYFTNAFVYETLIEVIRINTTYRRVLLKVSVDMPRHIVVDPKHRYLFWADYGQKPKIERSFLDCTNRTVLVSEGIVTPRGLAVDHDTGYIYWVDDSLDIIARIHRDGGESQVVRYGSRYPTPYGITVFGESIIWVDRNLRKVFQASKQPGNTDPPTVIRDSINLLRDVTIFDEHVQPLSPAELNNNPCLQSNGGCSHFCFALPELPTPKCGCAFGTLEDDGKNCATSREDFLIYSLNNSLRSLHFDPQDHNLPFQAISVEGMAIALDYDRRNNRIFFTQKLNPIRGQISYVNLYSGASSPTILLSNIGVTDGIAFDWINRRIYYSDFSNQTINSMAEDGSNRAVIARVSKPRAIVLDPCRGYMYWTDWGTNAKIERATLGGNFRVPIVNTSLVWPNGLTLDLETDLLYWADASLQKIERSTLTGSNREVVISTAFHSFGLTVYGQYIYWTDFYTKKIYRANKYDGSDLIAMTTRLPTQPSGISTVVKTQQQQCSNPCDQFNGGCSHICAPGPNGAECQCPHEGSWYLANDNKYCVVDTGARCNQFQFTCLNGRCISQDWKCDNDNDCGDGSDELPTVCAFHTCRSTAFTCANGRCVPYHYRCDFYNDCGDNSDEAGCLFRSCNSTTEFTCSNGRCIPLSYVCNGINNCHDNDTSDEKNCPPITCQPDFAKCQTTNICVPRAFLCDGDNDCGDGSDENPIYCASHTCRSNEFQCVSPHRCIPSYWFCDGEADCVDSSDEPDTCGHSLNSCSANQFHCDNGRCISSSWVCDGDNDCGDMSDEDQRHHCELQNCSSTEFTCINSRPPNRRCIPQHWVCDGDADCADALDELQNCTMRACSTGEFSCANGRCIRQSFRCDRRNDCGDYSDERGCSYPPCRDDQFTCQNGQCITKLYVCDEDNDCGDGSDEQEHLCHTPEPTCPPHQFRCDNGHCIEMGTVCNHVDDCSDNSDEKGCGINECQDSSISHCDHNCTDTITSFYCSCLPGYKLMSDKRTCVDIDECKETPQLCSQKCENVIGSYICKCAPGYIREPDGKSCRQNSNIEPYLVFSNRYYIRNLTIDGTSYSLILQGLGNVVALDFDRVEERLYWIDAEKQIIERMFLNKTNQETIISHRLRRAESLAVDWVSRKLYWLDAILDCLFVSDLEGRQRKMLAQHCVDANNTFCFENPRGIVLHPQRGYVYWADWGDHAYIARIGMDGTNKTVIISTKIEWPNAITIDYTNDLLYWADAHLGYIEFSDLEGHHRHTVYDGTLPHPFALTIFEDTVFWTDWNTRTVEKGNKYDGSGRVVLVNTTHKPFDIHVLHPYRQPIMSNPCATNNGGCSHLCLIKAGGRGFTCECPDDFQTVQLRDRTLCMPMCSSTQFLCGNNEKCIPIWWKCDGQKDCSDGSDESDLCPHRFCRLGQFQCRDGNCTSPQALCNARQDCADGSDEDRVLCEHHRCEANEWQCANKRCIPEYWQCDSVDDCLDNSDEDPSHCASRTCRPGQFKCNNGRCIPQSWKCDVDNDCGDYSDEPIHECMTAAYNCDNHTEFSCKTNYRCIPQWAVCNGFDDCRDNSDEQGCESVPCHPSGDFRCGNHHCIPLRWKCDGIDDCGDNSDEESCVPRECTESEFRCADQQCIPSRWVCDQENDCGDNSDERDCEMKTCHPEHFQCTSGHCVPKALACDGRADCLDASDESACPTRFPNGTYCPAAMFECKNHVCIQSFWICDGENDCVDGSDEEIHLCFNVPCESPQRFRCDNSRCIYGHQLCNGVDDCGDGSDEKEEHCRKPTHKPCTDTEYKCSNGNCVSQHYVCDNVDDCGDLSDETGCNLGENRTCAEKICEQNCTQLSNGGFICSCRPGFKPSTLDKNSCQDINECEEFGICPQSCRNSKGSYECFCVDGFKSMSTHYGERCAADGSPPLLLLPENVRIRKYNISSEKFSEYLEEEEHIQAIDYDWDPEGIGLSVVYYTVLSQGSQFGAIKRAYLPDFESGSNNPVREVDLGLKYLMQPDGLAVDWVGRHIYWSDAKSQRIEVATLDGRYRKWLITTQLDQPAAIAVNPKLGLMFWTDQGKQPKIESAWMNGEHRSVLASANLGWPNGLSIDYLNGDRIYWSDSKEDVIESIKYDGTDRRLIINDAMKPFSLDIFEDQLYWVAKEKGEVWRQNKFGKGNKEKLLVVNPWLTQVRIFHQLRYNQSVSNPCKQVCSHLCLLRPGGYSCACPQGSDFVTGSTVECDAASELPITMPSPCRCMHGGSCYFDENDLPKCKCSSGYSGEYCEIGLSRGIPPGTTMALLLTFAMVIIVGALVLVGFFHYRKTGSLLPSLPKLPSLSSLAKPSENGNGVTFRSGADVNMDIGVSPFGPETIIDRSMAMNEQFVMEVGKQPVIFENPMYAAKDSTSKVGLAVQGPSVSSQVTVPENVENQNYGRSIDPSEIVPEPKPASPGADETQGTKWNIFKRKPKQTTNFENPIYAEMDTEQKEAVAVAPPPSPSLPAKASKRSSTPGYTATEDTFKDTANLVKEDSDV

In the case of `CC1(C)C[C@@H]1C(=O)N/C(=C\CCCCSC[C@H](N)C(=O)O)C(=O)O` [cilastatin, Cilastatin], the “kidney MFI of LC-NP, cilastatin-treated vs vehicle-treated mice” value in assay [1] (cilastatin 4 days before LC-NP, 24 hours post-injection) is on record as “significantly lower”. Besides, the “kidney MFI of NPs, cilastatin-treated vs vehicle-treated mice” value in assay [1] (mice injected with NPs) is “no statistical difference”. For the same compound, the “number of LC-NPs taken up by HK-2 cells, with vs without cilastatin” value in assay [2] was “significantly lower”.
